Patent publication US10471082B2, “Flavivirus protease inhibitors” (priority 2012, dated 2019)

Columns and labels:
[1] = biological target: T1, WNV protease (West Nile virus, UniProt Q9Q6P4); test: In vitro protease assay, WNV NS2B-NS3pro; format: biochemical; settings: for inhibition at 10 µM: read-out: % Inhib. WNV Protease at 10 μM; for inhibition at 25 µM: read-out: % Inhib. WNV Protease at 25 μM
T1 construct: purified viral protease NS2B-N53-pro from DENV-2 or WNV; made in house; host or cells: E. coli TOP10F' cells
Procedure: (§1) DENV-2 and WNV proteases were expressed from 2 L cultures of TOP10F′ cells (Invitrogen; Carlsbad, Calif.) transformed with expression plasmids pQE30-NS2BH(QR)-NS3pro and WNV clone 107, respectively. Cultures were grown in LB medium supplemented with ampicillin (100 μg/mL) and 0.1% glucose at 37° C. until the OD600 reached 0.6-0.7. The medium was then replaced with fresh LB-ampicillin with 1 mM IPTG. Expression was done at 20° C. for 16 h. Cells were then pelleted and either frozen or used immediately for purification using a Talon metal affinity resin (Clontech; Mountain View, Calif.).
(§2) A reaction mixture was prepared containing 200 mM Tris pH 9.5, 30% glycerol, 0.1% CHAPS detergent (to prevent non-specific aggregation of compounds), 50 nM DENV2QRpro enzyme and 10 μM Bz-Nle-Lys-Arg-Arg-AMC in each 30 μL reaction in duplicate 384-well plates. Aprotinin (2 μM) was used as a positive control. Compounds which inhibited the cleavage of the substrate by at least 50% were considered as positive hits. From the list of positive compounds, the highest scoring hits were selected for further analysis. […] Out of the 29 compounds, only 22 dissolved in DMSO at 5 mM. The activities of the 22 compounds were tested against DENV-2 and WNV proteases at 10 and 25 μM of the inhibitor concentration. […] A control containing only 2% DMSO and the substrate was used to achieve the minimum value of relative fluorescence units (RFU) for background subtraction. Compounds that reduced the protease activity by ≥70% were selected for further analysis.
(§3) Compound I, Compound II, Compound III, Compound IV, Compound V, Compound VI, and Compound VII were analyzed by in vitro protease assays. The compounds were tested for DENV-2 and WNV protease inhibition activity. All assays were done in triplicate in black 96-well plates. Protease activity experiments were performed in vitro using purified viral protease NS2B-N53-pro from DENV-2 or WNV. The reaction mixture of 100 μL/well contained 200 mM Tris pH 9.5, 30% glycerol, 27 nM WNV, 2% DMSO and fluorogenic tetra-peptide substrate Bz-Nle-Lys-Arg-Arg-AMC at concentrations that varied (0.05, 0.1, 0.5, 1, 2, 5, 10, and 25 μM). The percent activities after 30 min versus inhibitor concentration were plotted in GraphPad Prism v5.04 using the four-parameter nonlinear regression (Hill slope method).
(§4) In all assays, the inhibitor-enzyme complex was allowed to form by pre-incubation for 15 min at room temperature (RT) before addition of the substrate. After 5 min incubation, reactions were monitored by the release of free AMC, every 1.5 min for 30 min. The fluorescence emission was recorded at 465 nm following excitation at 385 nm using the Spectra Max Gemini EM (Molecular Devices; Silicon Valley, Calif.). The relative fluorescence units (RFU) were converted to absolute AMC product concentrations using Excel, where the data were transformed using the slope from the linear regression of the AMC calibration curve generated from the fluorescence values versus micromolar (μM) concentrations of free AMC. RFUs, obtained in a standard assay in the absence of inhibitors, were taken as 100% protease activity (or 0% inhibition), the background value (no protease) as 0% activity (or 100% inhibition). Kinetic values were determined using Microsoft Excel and GraphPad Prism 5 (La Jolla, Calif.).

[2] = biological target: T2, DENV-2 protease (Dengue virus type 2, UniProt P14340); test: In vitro protease assay, DENV-2 NS2B-NS3pro; format: biochemical, Dengue virus serotype 2; settings: for inhibition at 10 µM: 10 μM inhibitor, read-out: % Inhib. DENV 2 Protease at 10 μM; for inhibition at 25 µM: 25 μM inhibitor, read-out: % Inhib. DENV 2 Protease at 25 μM; for IC50: substrate Bz-Nle-Lys-Arg-Arg-AMC, triplicate, read-out: IC50 DENV2
T2 construct: expression plasmids pQE30-NS2BH(QR)-NS3pro and WNV clone 107, respectively; made in house; host or cells: E. coli TOP10F' cells
Procedure: as §1, §2, §3, §4

[3] = biological target: DENV-3 protease (Dengue virus type 3, UniProt P27915); test: DENV-3 protease inhibition; format: biochemical, Dengue virus serotype 3
[4] = Cell viability (CellTiter Glo) in BHK21-DENV2 cells; format: cell-based; settings: hamster, ATP production
Procedure: (§5) Both drug efficacy and cytotoxicity were measured using the same experimental plate. Prior to compound treatment, BHK21-DENV2 or Vero-WNV cells at […] were plated in 96-well plates with each well containing 10^4 cells. After 24 h incubation, the medium was replaced with 100 μL fresh medium containing different compound concentrations (0.5, 1, 2, 5, 10, and 25 μM) in triplicate wells. Cells were incubated again for 24 h. Cells were then washed with PBS and the luminescence signal from Renilla luciferase activity was read using the Renilla luciferase assay kit (Promega Corp; Fitchburg, Wis.) using a luminometer (Berthold Technologies, Inc.; Oak Ridge, Tenn.). Cell viability (CC50) was measured as amount of ATP production in viable (live) cells using a chemiluminescence detection method (CellTiter Glo kit from Promega Corp) using the Model LB960 luminometer (Berthold Technologies). The EC50 and CC50 values of selected compounds were calculated similar to IC50s using GraphPad Prism v5. Experiments were done in duplicates.
Following a similar protocol, the EC50 and CC50 values of Compounds III and V for inhibition of DENV2 replicon-expressing BHK21 cells and cell viability of those cells treated with Compounds III and V were determined.

[5] = test system: WNV replicon-expressing Vero cells; test: WNV replicon assay (Renilla luciferase); format: cell-based; settings: West Nile virus, 24 h
Description: (§6) The efficacy of the compounds was also examined in cell-based assays performed in mammalian cells. Mammalian cells are the host for replication of the virus; a compound added to the growth medium of the mammalian cell in which a replicon RNA or dengue virus is replicating, the compound of interest could permeate the cell and interfere with the replication process. If there is a quantitative read-out of replication efficiency, the potency of the inhibitor compound could be evaluated in a quantifiable manner. There are two types of quantifiable assays available both employing mammalian cells; the first is the Baby Hamster Kidney (BHK) or monkey kidney (Vero) cells harboring DENV-2 or WNV replicon RNA, respectively, in a continuously replicating state and these are “stable replicon-expressing” cells. […] The inhibition of infectivity of the virus by the compound is measured by the extent of reduction of the titer of virus determined by plaque assay.
(§7) Both drug efficacy and cytotoxicity were measured using the same experimental plate. […] Cells were then washed with PBS and the luminescence signal from Renilla luciferase activity was read using the Renilla luciferase assay kit (Promega Corp; Fitchburg, Wis.) using a luminometer (Berthold Technologies, Inc.; Oak Ridge, Tenn.). […] The EC50 and CC50 values of selected compounds were calculated similar to IC50s using GraphPad Prism v5. […]

[6] = test system: DENV2 replicon-expressing BHK21 cells; test: DENV2 replicon assay (Renilla luciferase); format: cell-based; settings: Dengue virus, DENV2, BHK-21
Description: as §6, §7

[7] = biological target: DENV-1 protease (Dengue virus type 1, UniProt P17763); test: DENV-1 protease inhibition; format: biochemical, Dengue virus serotype 1
[8] = Cell viability (CellTiter Glo) in Vero-WNV cells; format: cell-based; settings: monkey, ATP production
Procedure: as §5

[9] = biological target: DENV-4 protease (Dengue virus type 4, UniProt P09866); test: DENV-4 protease inhibition; format: biochemical, Dengue virus serotype 4
[10] = test system: Dengue virus; test: Plaque assay for anti-dengue viral activity; format: cell-based; settings: for virus titer: BHK 21 cells, MOI 1, 48 h, no-treatment 2×10^5; for EC50: Dengue virus, read-out: EC50 in virus replication
Description: The efficacy of the compounds was also examined in cell-based assays performed in mammalian cells. Mammalian cells are the host for replication of the virus; a compound added to the growth medium of the mammalian cell in which a replicon RNA or dengue virus is replicating, the compound of interest could permeate the cell and interfere with the replication process. If there is a quantitative read-out of replication efficiency, the potency of the inhibitor compound could be evaluated in a quantifiable manner. There are two types of quantifiable assays available both employing mammalian cells; the first is the Baby Hamster Kidney (BHK) or monkey kidney (Vero) cells harboring DENV-2 or WNV replicon RNA, respectively, in a continuously replicating state and these are “stable replicon-expressing” cells. The second assay is infectivity assays in which mammalian cells are infected with DENV and the compound of interest is added at various concentrations and incubated. The inhibition of infectivity of the virus by the compound is measured by the extent of reduction of the titer of virus determined by plaque assay.
BHK 21 cells (1×10^5) were plated onto each well of 12 well-cell culture plate. […] One hour later, the Dengue virus was added (MOI:1). After an additional 48 hours, the supernatant was collected and tested by the plaque assay.
LLC-MK2 cells were plated at 2.5×10^5 cells per well in 6-well plates containing 2 ml culture medium and incubated overnight. Serially diluted supernatants from BHK21 cells treated with compounds at different concentrations as described above were incubated with cells in paired wells of six-well plates for 2 h. Cells were overlaid with 1× media containing 0.5% Sea-Kem GTG agarose (FMC Bioproducts; Philadelphia, Pa.) and were incubated for 7 days at 37° C. and visualized by staining with 0.01% neutral red solution overnight.

T1 sequence (Q9Q6P4 1506-1683): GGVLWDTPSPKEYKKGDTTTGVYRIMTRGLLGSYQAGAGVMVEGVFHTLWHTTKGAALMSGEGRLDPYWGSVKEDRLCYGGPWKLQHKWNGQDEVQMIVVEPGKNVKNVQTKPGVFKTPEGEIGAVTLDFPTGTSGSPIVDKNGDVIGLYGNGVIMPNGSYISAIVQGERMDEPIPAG
T1 sequence (Q9Q6P4 1375-1505): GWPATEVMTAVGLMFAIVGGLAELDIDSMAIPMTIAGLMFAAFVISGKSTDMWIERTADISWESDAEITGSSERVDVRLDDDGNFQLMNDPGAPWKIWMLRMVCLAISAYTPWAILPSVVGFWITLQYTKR
T2 sequence (P14340 1476-1653): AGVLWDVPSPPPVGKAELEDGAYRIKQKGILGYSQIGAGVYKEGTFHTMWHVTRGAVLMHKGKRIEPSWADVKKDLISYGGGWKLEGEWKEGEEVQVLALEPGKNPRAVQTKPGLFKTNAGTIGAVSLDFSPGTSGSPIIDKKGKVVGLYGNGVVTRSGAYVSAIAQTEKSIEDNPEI
Sequence of DENV-3 protease (P27915 1474-1651): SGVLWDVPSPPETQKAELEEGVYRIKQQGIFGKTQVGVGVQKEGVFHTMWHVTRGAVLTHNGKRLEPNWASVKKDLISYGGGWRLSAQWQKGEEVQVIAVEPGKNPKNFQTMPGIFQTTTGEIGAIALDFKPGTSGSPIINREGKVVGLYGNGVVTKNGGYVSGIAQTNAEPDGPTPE
Sequence of DENV-3 protease (P27915 1392-1438): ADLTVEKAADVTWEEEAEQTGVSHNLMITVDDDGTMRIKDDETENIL
Sequence of DENV-4 protease (P09866 1475-1652): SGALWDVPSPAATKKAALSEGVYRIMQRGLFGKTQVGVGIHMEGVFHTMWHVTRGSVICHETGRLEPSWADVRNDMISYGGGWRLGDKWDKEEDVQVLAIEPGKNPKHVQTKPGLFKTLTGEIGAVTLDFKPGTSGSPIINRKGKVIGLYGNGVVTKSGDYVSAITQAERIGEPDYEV
Sequence of DENV-4 protease (P09866 1393-1439): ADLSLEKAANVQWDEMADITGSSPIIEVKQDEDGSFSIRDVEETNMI
Sequence of DENV-1 protease (P17763 1394-1440): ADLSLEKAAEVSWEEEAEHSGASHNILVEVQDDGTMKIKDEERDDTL
Sequence of DENV-1 protease (P17763 1476-1653): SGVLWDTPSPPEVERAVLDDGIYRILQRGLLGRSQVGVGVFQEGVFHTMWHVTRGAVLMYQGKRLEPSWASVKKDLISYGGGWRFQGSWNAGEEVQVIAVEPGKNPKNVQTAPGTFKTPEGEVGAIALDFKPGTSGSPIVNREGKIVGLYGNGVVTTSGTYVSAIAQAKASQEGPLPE

Compound `Cc1ccc(C2=NC(=O)/C(=C/c3cc(O)c(O)c(Br)c3)S2)cc1` [Compound III] has an IC50 [1] of 1.3 µM, an inhibition at 10 µM [1] of 98% and an inhibition at 25 µM [1] of 98%. The inhibition at 10 µM [2] was 96%, the inhibition at 25 µM [2] was 94% and the IC50 [2] was 3.4 µM. The IC50 [3] was 4.8 ± 1.1 µM, the CC50 at 24 h [4] was 407 µM and the EC50 [5] was 3.7 µM. It also gave an EC50 [6] of 7.2 µM, an IC50 [7] of 5.99 ± 1.4 µM and a CC50 at 24 h [8] of 130 µM. The IC50 [9] was 3.92 ± 0.05 µM, the “fold reduction of virus titer” value ([10]; 10 μM compound) was 3.3 fold and the virus titer ([10]; 10 μM compound) was 6×10^4 PFU/ml. For the same compound, the “fold reduction of virus titer” value ([10]; 15 μM compound) was 5 fold, the virus titer ([10]; 15 μM compound) was 4×10^4 PFU/ml and the “fold reduction of virus titer” value ([10]; 20 μM compound) was 100 fold. For the same compound, the virus titer ([10]; 20 μM compound) was 2×10^3 PFU/ml and the EC50 [10] was < 10 µM.

Work on `Cc1sc2nc(SCC(=O)c3ccc(O)c(O)c3)[nH]c(=O)c2c1C` [Compound II] yielded an IC50 [1] of 9.7 µM, an inhibition at 10 µM [1] of 45% and an inhibition at 25 µM [1] of 92%. The inhibition at 10 µM [2] was 57%, the inhibition at 25 µM [2] was 92% and the IC50 [2] was 8.8 µM. For the same compound, the “inhibition of the virus titer” value ([10]; 20 μM compound) was “did not show a significant inhibition”.

`O=c1c(Oc2ccccc2)c(C(F)(F)F)oc2c(O)c(O)ccc12` [Compound IV] gave an IC50 [1] of 6.7 µM, an inhibition at 10 µM [1] of 71% and an inhibition at 25 µM [1] of 95%. It also gave an inhibition at 10 µM [2] of 63%, an inhibition at 25 µM [2] of 82% and an IC50 [2] of 8.5 µM. The EC50 [10] was < 20 µM.

With `COCc1cc(C)nc(SCC(=O)c2ccc(O)c(O)c2)c1C#N` [Compound I] the IC50 [1] was 9 µM, the inhibition at 10 µM [1] was 54% and the inhibition at 25 µM [1] was 95%. For the same compound, the inhibition at 10 µM [2] was 51%, the inhibition at 25 µM [2] was 89% and the IC50 [2] was 10.5 µM.

Compound `Cc1ccc(C(=O)c2cc(O)c(O)c([N+](=O)[O-])c2)cc1` [Compound VI, Tolcapone, reference compound] has an IC50 [1] of 0.68 µM, an inhibition at 10 µM [1] of 99% and an inhibition at 25 µM [1] of 67%. For the same compound, the inhibition at 10 µM [2] was 90%, the inhibition at 25 µM [2] was 92% and the IC50 [2] was 0.758 µM. For the same compound, the “fold reduction of virus titer” value ([10]; 5 μM compound) was “greater than 100 fold” and the EC50 [10] was < 5 µM.

With `O=C(OC[C@H]1OC(OC(=O)c2cc(O)c(O)c(OC(=O)c3cc(O)c(O)c(O)c3)c2)C(OC(=O)c2cc(O)c(O)c(OC(=O)c3cc(O)c(O)c(O)c3)c2)[C@@H](OC(=O)c2cc(O)c(O)c(OC(=O)c3cc(O)c(O)c(O)c3)c2)C1OC(=O)c1cc(O)c(O)c(OC(=O)c2cc(O)c(O)c(O)c2)c1)c1cc(O)c(O)c(OC(=O)c2cc(O)c(O)c(O)c2)c1` (some centres unmarked) [Compound VII, Tannic acid, reference compound] the IC50 [1] was 0.312 µM, the inhibition at 10 µM [1] was 98% and the inhibition at 25 µM [1] was 96%. For the same compound, the inhibition at 10 µM [2] was 99%, the inhibition at 25 µM [2] was 101% and the IC50 [2] was 0.768 µM. The EC50 [10] was < 5 µM.

For `CCOC(=O)c1oc2c(O)c(O)ccc2c(=O)c1-c1cnn(-c2ccccc2)c1` [Compound V], the IC50 [1] was 4.3 µM, the inhibition at 10 µM [1] was 75% and the inhibition at 25 µM [1] was 95%. It also gave an inhibition at 10 µM [2] of 75%, an inhibition at 25 µM [2] of 86% and an IC50 [2] of 4.8 µM. It also gave an IC50 [3] of 5 ± 1.4 µM, a CC50 at 24 h [4] of 202 µM and an EC50 [5] of 9.7 µM. The EC50 [6] was 11.7 µM, the IC50 [7] was 6.4 ± 1.2 µM and the CC50 at 24 h [8] was 168 µM. For the same compound, the IC50 [9] was 5.32 ± 0.6 µM.
